The target of test [1] is T1, Mhp1 (Microbacterium maritypicum, UniProt D6R8X8).
T1 construct: gene hyuP; full-length wild type with C-terminal His6 tag, purified in DDM
As to the kind of experiment: tryptophan fluorescence quenching titration. The class given is binding. The following applies: 140 mM NaCl (also 15 and 1000 mM).

The target of test [2] is T1, Mhp1. Briefly: NEM labelling of Cys327 with intact mass spectrometry, protection by ligand. The class given is binding. The following applies: 140 mM Na+, pH 8, 25 °C, 0.05% DDM.

The values that follow come from paper PMC5588088, “Topological Dissection of the Membrane Transport Protein Mhp1 Derived from Cysteine Accessibility and Mass Spectrometry” (Analytical Chemistry, 2017).

T1 sequence (D6R8X8 whole entry): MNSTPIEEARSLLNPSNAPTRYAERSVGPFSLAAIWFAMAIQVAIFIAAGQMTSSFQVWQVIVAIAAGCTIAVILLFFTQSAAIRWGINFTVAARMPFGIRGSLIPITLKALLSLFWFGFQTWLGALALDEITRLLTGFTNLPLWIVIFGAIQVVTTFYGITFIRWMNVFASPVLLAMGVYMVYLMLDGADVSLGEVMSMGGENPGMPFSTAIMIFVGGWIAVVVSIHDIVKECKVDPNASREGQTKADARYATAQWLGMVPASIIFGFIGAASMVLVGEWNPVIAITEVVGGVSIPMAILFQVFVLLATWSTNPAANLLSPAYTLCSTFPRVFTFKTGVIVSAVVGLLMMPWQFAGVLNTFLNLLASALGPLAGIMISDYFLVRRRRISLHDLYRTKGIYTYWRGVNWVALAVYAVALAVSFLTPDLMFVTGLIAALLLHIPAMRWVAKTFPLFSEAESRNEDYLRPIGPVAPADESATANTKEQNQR

For the compound `O=C1NC(=O)[C@H](Cc2ccccc2)N1` [L-BH, 5-benzyl-L-hydantoin], the Kd app result in test [1] is recorded as “Tryptophan fluorescence quenching of Mhp1 upon titration with L-BH”.

For `O=C1NC(=O)[C@H](Cc2c[nH]c3ccccc23)N1` [L-IMH, 5-indolylmethyl-L-hydantoin], in test [2], the “reduction in NEM labeling at 2 mM” value was 5-indolylmethyl-L-hydantoin (L-IMH).
